Measurements taken from ChEMBL document CHEMBL5625247, “Tetrahydro-β-carboline derivatives as potent histone deacetylase 6 inhibitors with broad-spectrum antiproliferative activity” (Eur J Med Chem, 2023).

What was measured:
[1] = target: T1, Protein deacetylase HDAC6 (Homo sapiens) (UniProt Q9UBN7); experiment: Inhibition of HDAC6 (unknown origin) expressed in baculovirus infected in Sf9 cells using RHKKAc as substrate at 500 nM preincubated for 5 to 10 mins followed by substrate addition measured after 2 hrs by fluorescence based assay relative to control; conditions: time 5-130 min
T1 sequence (whole entry): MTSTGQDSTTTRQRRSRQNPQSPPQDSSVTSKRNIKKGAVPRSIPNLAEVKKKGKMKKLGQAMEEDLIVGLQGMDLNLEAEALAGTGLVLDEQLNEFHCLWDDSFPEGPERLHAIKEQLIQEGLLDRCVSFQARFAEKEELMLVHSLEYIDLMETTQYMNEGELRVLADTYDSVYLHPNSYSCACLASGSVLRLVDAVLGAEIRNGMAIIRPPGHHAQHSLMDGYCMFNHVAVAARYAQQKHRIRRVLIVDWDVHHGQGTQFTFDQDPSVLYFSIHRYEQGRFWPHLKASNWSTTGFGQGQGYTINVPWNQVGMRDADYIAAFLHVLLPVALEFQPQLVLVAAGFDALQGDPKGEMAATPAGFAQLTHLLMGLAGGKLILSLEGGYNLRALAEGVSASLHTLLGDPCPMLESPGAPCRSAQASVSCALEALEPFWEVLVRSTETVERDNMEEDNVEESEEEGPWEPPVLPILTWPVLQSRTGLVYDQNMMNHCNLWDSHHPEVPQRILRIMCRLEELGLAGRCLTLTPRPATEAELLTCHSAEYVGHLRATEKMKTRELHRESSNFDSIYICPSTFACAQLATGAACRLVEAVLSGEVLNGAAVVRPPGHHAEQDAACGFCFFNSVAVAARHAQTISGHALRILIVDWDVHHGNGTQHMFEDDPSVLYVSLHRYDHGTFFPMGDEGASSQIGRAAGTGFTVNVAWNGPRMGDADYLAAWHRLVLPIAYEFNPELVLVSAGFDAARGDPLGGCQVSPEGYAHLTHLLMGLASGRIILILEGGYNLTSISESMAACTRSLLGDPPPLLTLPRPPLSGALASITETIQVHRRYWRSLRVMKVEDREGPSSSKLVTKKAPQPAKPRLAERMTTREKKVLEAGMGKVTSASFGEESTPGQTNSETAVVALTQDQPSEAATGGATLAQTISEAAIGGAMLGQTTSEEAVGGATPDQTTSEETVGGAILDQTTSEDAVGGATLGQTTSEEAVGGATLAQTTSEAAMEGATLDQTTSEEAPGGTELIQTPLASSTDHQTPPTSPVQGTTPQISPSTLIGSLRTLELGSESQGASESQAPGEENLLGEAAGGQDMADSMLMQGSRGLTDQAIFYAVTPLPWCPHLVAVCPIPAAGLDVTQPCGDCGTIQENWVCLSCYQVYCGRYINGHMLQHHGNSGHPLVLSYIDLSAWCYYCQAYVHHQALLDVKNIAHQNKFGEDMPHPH

[2] = target: T2, Histone deacetylase 1 (Homo sapiens, UniProt Q13547); experiment: Inhibition of HDAC1 (unknown origin) expressed in baculovirus infected in Sf9 cells using RHKKAc as substrate at 500 nM preincubated for 5 to 10 mins followed by substrate addition measured after 2 hrs by fluorescence based assay relative to control; conditions: time 5-130 min
T2 sequence (Q13547 whole entry): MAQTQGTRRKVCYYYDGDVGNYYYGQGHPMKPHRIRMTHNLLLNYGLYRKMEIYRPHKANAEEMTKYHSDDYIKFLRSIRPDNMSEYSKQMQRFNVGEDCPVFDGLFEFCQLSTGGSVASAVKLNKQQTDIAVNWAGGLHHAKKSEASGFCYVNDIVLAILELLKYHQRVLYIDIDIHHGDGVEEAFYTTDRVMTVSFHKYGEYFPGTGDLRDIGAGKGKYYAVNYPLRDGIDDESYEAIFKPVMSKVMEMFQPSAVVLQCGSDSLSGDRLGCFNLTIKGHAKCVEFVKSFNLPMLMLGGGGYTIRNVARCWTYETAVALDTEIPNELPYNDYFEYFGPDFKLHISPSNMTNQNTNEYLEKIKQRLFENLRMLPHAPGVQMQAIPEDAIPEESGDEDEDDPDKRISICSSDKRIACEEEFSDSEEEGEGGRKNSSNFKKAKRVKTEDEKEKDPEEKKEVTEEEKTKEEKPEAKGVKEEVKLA

[3] = target: T3, Protein deacetylase HDAC6 (Homo sapiens, UniProt Q9UBN7); experiment: Inhibition of HDAC6 (unknown origin) expressed in baculovirus infected in Sf9 cells using RHKKAc as substrate preincubated for 5 to 10 mins followed by substrate addition measured after 2 hrs by fluorescence based assay
T3 sequence (Q9UBN7 whole entry): T1 sequence (whole entry)

[4] = target: T2, Histone deacetylase 1; experiment: Inhibition of HDAC1 (unknown origin) expressed in baculovirus infected in Sf9 cells using RHKKAc as substrate preincubated for 5 to 10 mins followed by substrate addition measured after 2 hrs by fluorescence based assay
[5] = system: RPMI-8226; experiment: cells; format: functional, cell-based; conditions: Homo sapiens, RPMI-8226, 72 h

inhibition [1] [%]	inhibition [2] [%]	IC50 [3] [nM]	IC50 [4] [nM]	IC50 [5] [nM]	SMILES
98.7	71.4	3.75	494		COc1ccc([C@H]2N[C@H](C(=O)NCc3ccc(C(=O)NO)cc3)Cc3c2[nH]c2ccccc32)cc1
83.4	32				COc1ccc(CN2Cc3[nH]c4ccccc4c3C[C@@H]2C(=O)NCc2ccc(C(=O)NO)cc2)cc1
81.5	38.1				COc1ccc(C[C@H]2N[C@H](C(=O)NCc3ccc(C(=O)NO)cc3)Cc3c2[nH]c2ccccc32)cc1
			78	900	COc1ccc([C@@H]2N[C@@H](C(=O)NCc3ccc(C(=O)NO)cc3)Cc3c2[nH]c2ccccc32)cc1OC
87.1	30.6				COc1ccc([C@@H]2N[C@H](C(=O)NCc3ccc(C(=O)NO)cc3)Cc3c2[nH]c2ccccc32)cc1
		4.36	38	830	O=C(NO)c1ccc(CNC(=O)[C@H]2Cc3c([nH]c4ccccc34)[C@H](C3CC3)N2)cc1

The remaining lines, values behind:

SMILES	inhibition [1] [%]	inhibition [2] [%]	IC50 [3] [nM]	IC50 [4] [nM]	IC50 [5] [nM]
COc1ccc([C@H]2N[C@@H](C(=O)NCc3ccc(C(=O)NO)cc3)Cc3c2[nH]c2ccccc32)cc1	82.3	35.8			
O=C(NO)c1ccc(CNC(=O)[C@H]2Cc3c([nH]c4ccccc34)[C@H](C3CC3)N2Cc2ccc(Cl)cc2)cc1			10.5	184	
COc1ccc(CN2[C@H](C(=O)NCc3ccc(C(=O)NO)cc3)Cc3c([nH]c4ccccc34)[C@H]2C2CC2)cc1		43.2		1680	
COc1ccc([C@@H]2N[C@@H](C(=O)NCc3ccc(C(=O)NO)cc3)Cc3c2[nH]c2ccccc32)cc1	96.4	90.6	2.34	51.5	
O=C(NO)c1ccc(CNC(=O)[C@H]2Cc3c([nH]c4ccccc34)[C@H](c3ccc(Cl)cc3)N2CC2CC2)cc1				106	
O=C(NO)c1ccc(CNC(=O)[C@H]2Cc3c([nH]c4ccccc34)[C@H](C3CCCC3)N2)cc1			2.53	40.5	680
O=C(NO)c1ccc(CNC(=O)[C@H]2Cc3c([nH]c4ccccc34)[C@H](c3ccccc3)N2)cc1			2.1	42.3	580
COc1ccc(CN2[C@@H](C(=O)NCc3ccc(C(=O)NO)cc3)Cc3c([nH]c4ccccc34)[C@@H]2C)cc1			8.84	125	
